Results from paper PMC7175153, “Testing the Pharmacokinetic Interactions of 24 Colonic Flavonoid Metabolites with Human Serum Albumin and Cytochrome P450 Enzymes” (Biomolecules, 2020).
Where two headings read alike, the source gives them in different places. Values belong to the compound of their own block, whether it stands above or below them.

Legend:
CYP3A4 [1] = settings: cited from earlier work
CYP2C19 [2] = molecular target: T1, CYP2C19 (Homo sapiens, UniProt P33261); assay: CYP2C19-catalyzed S-mephenytoin hydroxylation (CypExpress 2C19 kit); format: in vitro ADME; settings: CypExpress 2C19 kit (recombinant CYP2C19), probe S-mephenytoin, metabolite 20 μM, S-mephenytoin 5 μM
T1 construct: purchased Sigma-Aldrich
Text: Effects of microbial metabolites on CYP2C19 enzyme were examined based on their impact on CYP2C19-catalyzed 4-hydroxymephenytoin formation, employing the previously reported method without modifications.
(§1) S-mephenytoin and 4-hydroxymephenytoin (CYP2C19 assay) as well as testosterone and 6β-hydroxytestosterone (CYP3A4 assay) were quantified by HPLC-UV employing the previously described methods without modifications.

HSA = settings: cited from earlier work
CYP2C9 [3] = settings: cited from earlier work
CYP2C19 [4] = tested on: CYP2C19; parameters: method as in PMID 24254844; settings: cited from earlier work
HSA Site I (warfarin) = molecular target: T2, HSA Site I (warfarin) (Homo sapiens, UniProt P02768); assay: Displacement of Site I marker warfarin from HSA by ultrafiltration; format: binding; settings: warfarin 1 μM, HSA 5 μM, metabolite 20 μM
T2 construct: purchased Sigma-Aldrich
Text: (§2) Then the concentrations of site markers in the filtrates were quantified by HPLC (see in 2.5).

[5] = cited from earlier work
CYP3A4 [6] = molecular target: T3, CYP3A4 (Homo sapiens, UniProt P08684); assay: CYP3A4-catalyzed testosterone hydroxylation (CypExpress 3A4 kit); format: in vitro ADME; settings: CypExpress 3A4 kit (recombinant CYP3A4), probe testosterone, metabolite 20 μM, testosterone 5 μM, read-out: Inhibition of CYP3A4 (decrease in metabolite formation)
T3 construct: purchased Sigma-Aldrich
Protocol: Inhibitory action of flavonoid metabolites on CYP3A4 enzyme was tested based on their effects on CYP3A4-catalyzed testosterone hydroxylation, using the previously described method without modifications.
as §1

[7] = molecular target: T4, human serum albumin (HSA) (Homo sapiens, UniProt P02768); assay: HSA-ligand interaction by fluorescence spectroscopy (quenching, Stern-Volmer and Hyperquad fitting); format: binding; settings: for Effect on HSA fluorescence signal at 340 nm / LogKSV (Stern-Volmer quenching constant): HSA 2 μM; for Effect on HSA fluorescence signal at 340 nm: metabolite 0-8 μM, λex 295 nm; for Kd: decimal log ±SEM of K in L/mol, Hyperquad non-linear fitting, PBS pH 7.4; for LogKSV (Stern-Volmer quenching constant): decimal log ±SEM of KSV in L/mol, PBS pH 7.4, λex 295 nm, λem 340 nm
T4 construct: purchased Sigma-Aldrich
Protocol: Albumin-ligand interactions were investigated employing a Hitachi F-4500 fluorimeter (Tokyo, Japan), measurements were performed in phosphate-buffered saline (PBS, pH 7.4), in the presence of air at room temperature. Absorption spectra of the flavonoid metabolites were also recorded in PBS, applying a HALO DB-20 UV-Vis spectrophotometer (Dynamica, London, UK). Because the inner filter effect can decrease the fluorescence emission signal of albumin, fluorescence spectra were corrected using the following equation [29, 30]:Icor = Iobs × e^(Aex^+ Aem^)/2(1) where Icor means the corrected and Iobs denotes the observed emission intensities at the wavelengths used, while Aex and Aem are the absorbance values of flavonoid metabolites at the excitation and emission wavelengths applied, respectively.
HSA-ligand interactions were evaluated using fluorescence quenching studies or the intrinsic fluoresce of the metabolite (if it strongly interfered with the emission signal of albumin). In quenching studies, the emission spectrum of HSA (2 μM) was recorded in the presence of increasing concentrations of microbial metabolites (0, 2, 3, 4, 5, 6, and 8 μM), using a 295 nm excitation wavelength. Data were evaluated based on linear and non-linear fitting, employing the Stern-Volmer equation (Equation (2)) and the Hyperquad2006 program package (Protonic Software; Leeds, UK), respectively. The Stern-Volmer equation was described as I0/I = 1 + KSV × [Q](2) where I0 and I denote the fluorescence emission intensities (λex = 295 nm, λem = 340 nm) of HSA in the absence and presence of colonic metabolites, respectively. Furthermore, KSV (unit: L/mol) and [Q] (unit: mol/L) are the Stern-Volmer quenching constant and the concentration of the quencher, respectively.
The fluorescence emission spectrum of 2H4MBA (2 μM) was recorded with HSA (0, 0.5, 1, 2, 3, 4 and 5 μM), using 295 nm excitation wavelength (the excitation maximum of 2H4MBA). The binding constants (K; unit: L/mol) of albumin-ligand complexes were determined by non-linear fitting using the Hyperquad2006 program, as has been reported. During this evaluation, absorbance values and fluorescence signals of both HSA and 2H4MBA were taken into account.

CYP2C9 [8] = molecular target: CYP2C9 (Homo sapiens, UniProt P11712); assay: CYP2C9-catalyzed diclofenac hydroxylation (CypExpress 2C9 kit)
Protocol: The inhibitory effects of colonic flavonoid metabolites were examined in vitro, applying CypExpress^TM Cytochrome P450 human kits.
Inhibition of CYP2C9 enzyme was examined based on CYP2C9-catalyzed 4′-hydroxydiclofenac formation in the presence of microbial metabolites, using the previously reported method with some modifications. […] The incubations were started with the addition of the enzyme. After 120 min incubation at 700 rpm and 30 °C in a thermomixer (Eppendorf, Hamburg, Germany), the reaction was stopped with the addition of 100 μL of ice-cold methanol. After centrifugation (10 min, 14,000 g, room temperature), the concentrations of diclofenac and 4′-hydroxydiclofenac were quantified with HPLC (see in 2.5).
The metabolite formation (% of control) was depicted vs. the concentrations of inhibitors in a decimal logarithmic scale, then IC50 values were determined employing the GraphPad Prism 8 software (San Diego, CA, USA).
Diclofenac and 4′-hydroxydiclofenac (CYP2C9 assay) were quantified by HPLC-UV as it was reported previously. […] The separation was carried out using a guard column (Phenomenex Security Guard C8, 4.0 × 3.0 mm) linked to an analytical column (Agilent Eclipse C8, 150 × 4.6 mm, 5 μm) at room temperature. […] Diclofenac and 4′-hydroxydiclofenac were detected at 275 nm.

bovine serum albumin = settings: cited from earlier work
[9] = parameters: method as in PMID 25168218; settings: rat plasma, after Decalepis arayalpathra tuber extract; cited from earlier work
HSA Site II (naproxen) = molecular target: T5, HSA Site II (naproxen) (Homo sapiens, UniProt P02768); assay: Displacement of Site II marker naproxen from HSA by ultrafiltration; format: binding; settings: naproxen 1 μM, HSA 1.5 μM, metabolite 20 μM
T5 construct: purchased Sigma-Aldrich
Text: as §2

[10] = read-out: LogK (binding constant of albumin-ligand complex) (converted)

T3 sequence (P08684 whole entry): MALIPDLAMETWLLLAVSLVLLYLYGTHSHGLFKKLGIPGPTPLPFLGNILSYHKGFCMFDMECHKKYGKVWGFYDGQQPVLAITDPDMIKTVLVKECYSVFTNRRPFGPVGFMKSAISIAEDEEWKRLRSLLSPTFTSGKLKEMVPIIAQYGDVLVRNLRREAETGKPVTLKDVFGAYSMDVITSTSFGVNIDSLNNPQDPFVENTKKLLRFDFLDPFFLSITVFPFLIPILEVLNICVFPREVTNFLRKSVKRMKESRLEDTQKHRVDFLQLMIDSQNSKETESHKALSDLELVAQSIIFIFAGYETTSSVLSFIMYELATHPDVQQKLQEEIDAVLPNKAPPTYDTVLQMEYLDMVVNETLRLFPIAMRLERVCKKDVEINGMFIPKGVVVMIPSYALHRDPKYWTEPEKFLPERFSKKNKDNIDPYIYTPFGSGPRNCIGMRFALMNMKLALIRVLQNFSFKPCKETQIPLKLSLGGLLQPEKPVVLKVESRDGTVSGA
T1 sequence (P33261 whole entry): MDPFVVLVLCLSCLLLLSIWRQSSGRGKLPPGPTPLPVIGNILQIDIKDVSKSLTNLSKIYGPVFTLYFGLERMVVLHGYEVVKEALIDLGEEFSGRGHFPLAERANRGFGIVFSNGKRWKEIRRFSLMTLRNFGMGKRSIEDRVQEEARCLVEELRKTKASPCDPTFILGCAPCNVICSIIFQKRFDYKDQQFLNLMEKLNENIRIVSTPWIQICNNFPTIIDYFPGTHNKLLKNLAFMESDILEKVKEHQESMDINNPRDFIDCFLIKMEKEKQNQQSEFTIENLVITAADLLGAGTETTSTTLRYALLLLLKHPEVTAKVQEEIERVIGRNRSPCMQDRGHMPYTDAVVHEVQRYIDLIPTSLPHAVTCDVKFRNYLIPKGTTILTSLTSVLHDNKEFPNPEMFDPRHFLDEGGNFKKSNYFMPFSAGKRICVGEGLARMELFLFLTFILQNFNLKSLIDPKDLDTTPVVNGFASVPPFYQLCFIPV
T4 sequence (P02768 25-609): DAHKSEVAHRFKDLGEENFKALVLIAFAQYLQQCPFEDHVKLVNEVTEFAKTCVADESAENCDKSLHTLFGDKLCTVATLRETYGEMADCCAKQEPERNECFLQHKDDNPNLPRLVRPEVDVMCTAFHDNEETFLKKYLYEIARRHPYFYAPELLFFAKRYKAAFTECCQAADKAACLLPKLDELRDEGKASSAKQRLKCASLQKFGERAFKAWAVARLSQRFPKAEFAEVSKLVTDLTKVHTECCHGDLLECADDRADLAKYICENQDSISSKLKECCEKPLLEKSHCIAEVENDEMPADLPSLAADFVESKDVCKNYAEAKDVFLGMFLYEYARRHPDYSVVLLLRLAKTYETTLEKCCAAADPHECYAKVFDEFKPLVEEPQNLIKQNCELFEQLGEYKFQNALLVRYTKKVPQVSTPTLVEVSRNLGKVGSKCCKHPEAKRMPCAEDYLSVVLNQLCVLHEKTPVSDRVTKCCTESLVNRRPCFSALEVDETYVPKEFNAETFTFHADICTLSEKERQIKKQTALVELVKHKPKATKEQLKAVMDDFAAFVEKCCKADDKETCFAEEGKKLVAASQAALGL
Sequence of CYP2C9 (Homo sapiens, UniProt P11712) (P11712 whole entry): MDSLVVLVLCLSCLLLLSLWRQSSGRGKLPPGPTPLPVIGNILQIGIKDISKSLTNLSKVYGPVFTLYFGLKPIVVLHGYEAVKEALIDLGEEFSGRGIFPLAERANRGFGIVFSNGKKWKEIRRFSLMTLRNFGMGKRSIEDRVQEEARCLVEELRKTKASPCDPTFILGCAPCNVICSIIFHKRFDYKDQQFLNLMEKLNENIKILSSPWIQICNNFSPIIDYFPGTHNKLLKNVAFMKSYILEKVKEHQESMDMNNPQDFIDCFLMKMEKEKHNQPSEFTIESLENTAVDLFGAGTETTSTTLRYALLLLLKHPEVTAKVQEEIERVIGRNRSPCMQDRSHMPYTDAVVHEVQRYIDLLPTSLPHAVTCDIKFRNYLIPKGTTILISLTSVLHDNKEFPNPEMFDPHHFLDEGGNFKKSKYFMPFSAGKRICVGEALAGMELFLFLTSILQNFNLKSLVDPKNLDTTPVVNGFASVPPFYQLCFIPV
T2 sequence (P02768 25-609): as the sequence (P02768 25-609) above
T5 sequence (P02768 25-609): as above

inhibition at 20 μM (CYP2C19 [2]): < 30%
Structure (SMILES): O=C(O)CNC(=O)c1ccccc1 [HIPA, hippuric acid]
Inhibition of CYP3A4-catalyzed testosterone hydroxylation (CYP3A4 [1]; 1-100 μM range): did not show relevant inhibition
Inhibition of CYP3A4-catalyzed testosterone hydroxylation (CYP3A4 [1]): considerable inhibition only above 50 μM concentrations
logK of complex with HSA (HSA): 3.8
Inhibition of CYP2C9 (CYP2C9 [3]): inhibited only at very high concentrations (e.g., 100 μM)

Structure (SMILES): O=C(O)c1ccc(O)c(O)c1 [34DHBA, 3,4-dihydroxybenzoic acid]
inhibition at 20 μM (CYP2C19 [2]): < 30%
logK of complex with HSA (HSA): 3.1

Structure (SMILES): O=C(O)CCc1ccc(O)cc1 [34HPPA, 3-(4-hydroxyphenyl)propionic acid]
Effect on CYP3A4 enzyme (CYP3A4 [1]): did not influence
Inhibition of CYP2C19 (CYP2C19 [4]): did not inhibit
Inhibition of CYP2C9 (CYP2C9 [3]): did not inhibit

Structure (SMILES): O=C(O)/C=C/c1ccc(O)cc1 [4-coumaric acid]
Effect on CYP3A4 enzyme (CYP3A4 [1]): did not influence

Concentration of warfarin in the filtrate (HSA Site I (warfarin)): significantly increased
inhibition at 20 μM (CYP3A4 [6]): < 30%
inhibition at 20 μM (CYP2C19 [2]): < 30%
Effect on HSA fluorescence signal at 340 nm [7]: significant decrease
Kd [7, 10]: 8.32 µM
LogKSV (Stern-Volmer quenching constant) [7]: 4.99 ± 0.01
IC50 (CYP2C9 [8]): 6.6 µM
α (IC50 of the inhibitor divided by the IC50 of the positive control) (CYP2C9 [8]; human, 120 min, pH 7.5): 5.00
Structure (SMILES): CC(C(=O)c1ccc(O)cc1O)c1ccc(O)cc1 (stereo not shown) [DESMA, 1-(2,4-dihydroxyphenyl)-2-(4-hydroxyphenyl)-1-propanone]
Plasma concentrations ([5]; after dietary intake or high consumption of soy products, low nanomolar upward): ≤ 0.5 µM
Peak plasma concentration ([5]; after ingestion of 60 g baked soybean powder): 300−500 nM

inhibition at 20 μM (CYP3A4 [6]): ~65%
Structure (SMILES): Oc1cccc(O)c1 [RES, resorcinol]

inhibition at 20 μM (CYP3A4 [6]): < 30%
Effect on HSA fluorescence signal at 340 nm [7]: significant decrease
Kd [7, 10]: 27.5 µM
LogKSV (Stern-Volmer quenching constant) [7]: 4.39 ± 0.06
Structure (SMILES): CC(=O)c1ccc(O)cc1O [24DHAP, 2,4-dihydroxyacetophenone]

Structure (SMILES): O=C(O)/C=C/c1cccc(O)c1 [3CA, 3-coumaric acid]
logK of 3CA-bovine serum albumin complex (bovine serum albumin): 4.1
Concentration in the circulation [5]: low nanomolar concentrations
Effect on HSA fluorescence signal at 340 nm [7]: significant decrease
Kd [7, 10]: 72.4 µM
LogKSV (Stern-Volmer quenching constant) [7]: 4.13 ± 0.02

Structure (SMILES): COc1cc(CC(=O)O)ccc1O [3M4HPAA, 3-methoxy-4-hydroxyphenylacetic acid]
logK toward bovine serum albumin (bovine serum albumin): 3.8

inhibition at 20 μM (CYP3A4 [6]): ~40%
Structure (SMILES): Oc1cc(O)cc(O)c1 [PHLO, phloroglucinol]
Peak plasma concentration ([5]; healthy human volunteers, oral 160 mg PHLO): approximately 5 μM

Structure (SMILES): Oc1cccc(O)c1O [PYR, pyrogallol]
Concentration of warfarin in the filtrate (HSA Site I (warfarin)): significantly increased
Peak plasma concentration ([5]; healthy humans, black tea extract 2650 mg, plasma not treated with sulfatase): approximately 7 μM
Effect on HSA fluorescence signal at 340 nm [7]: significant decrease
Kd ([7]; LogK (binding constant of albumin-ligand complex)): 20.9 µM
LogKSV (Stern-Volmer quenching constant) [7]: 4.64 ± 0.03
logK of PYR-HSA complex (HSA): 4.5

Structure (SMILES): COc1cc(C(=O)O)ccc1O [4-hydroxy-3-methoxy-benzoic acid]
Cmax ([5]; healthy human volunteers, orally administered): 5.7 µM

Structure (SMILES): O=C(O)c1ccc(O)cc1 [4HBA, 4-hydroxybenzoic acid]
Effect on CYP3A4 enzyme (CYP3A4 [1]): did not influence
Inhibition of CYP2C19 (CYP2C19 [4]): did not inhibit
logK of complex with HSA (HSA): no interaction
Inhibition of CYP2C9 (CYP2C9 [3]): did not inhibit

Structure (SMILES): O=c1c(-c2ccc(O)cc2)coc2cc(O)ccc12 [daidzein]
Inhibition of CYP2C9-catalyzed hydroxylation of diclofenac (CYP2C9 [3]): inhibits

Structure (SMILES): O=C(O)c1ccc(O)cc1O [24DHBA, 2,4-dihydroxybenzoic acid]
logK of complex with HSA (HSA): 3.2

inhibition at 20 μM (CYP2C19 [2]): < 30%
Kd [7, 10]: 7.24 µM
Structure (SMILES): COc1ccc(C(=O)O)c(O)c1 [2H4MBA, 2-hydroxy-4-methoxybenzoic acid]
logK of 2H4MBA-HSA complex (HSA; quenching study): 3.2
Cmax [9]: 7.7 µM
Concentration of naproxen in the filtrate (HSA Site II (naproxen)): statistically significant (p < 0.05) but weak elevation
